These results are taken from patent US20210038559A1, “CANNABINOIDS AND DERIVATIVES FOR PROMOTING IMMUNOGENICITY OF TUMOR AND INFECTED CELLS” (priority 2018, published 2021).

The subject of one data set is MHC class I, A9 cells. Format: cell-based, mouse. Particulars: 48 hours. Here is the method: FIG. 6. Cannabigerol treatment of A9 cells for 48 hours at various doses increases MHC class I protein expression, as determined by flow cytometry. […] IFN γ treatment was at 5.832×10^−6 in two mL of media.
The effect of cannabigerol on MHC class I in A9 cancer cells were determined as follows. A9 cells (1×10^6) were plated onto a 6 well plate (Corning) in two mL of media. A9 cells were treated after 24 hours at various concentrations of Cannabigerol, 5.832×10^4 nM IFN gamma or DMSO vehicle for 48 hours. Cells were then harvested from the plate as per protocol and half of the cells were checked for MHC class I expression levels using flow cytometry. The Anti-mouse H2 KB APC antibody (Biolegend) was used at 1:200 in FACS buffer (2% FBS in PBS).

For data set [1], the system named is MHC class I expression on COLO 205 cells. In words: MHC class I expression on COLO 205 cells, 24 hours, flow cytometry (W6/32). Particulars: for MFI: W6/32 staining; for increase in MHC class I expression: 24 hours, relative to non-treated cells. On the procedure: FIG. 2A-2F. […] Cells were treated for 24 hours and cell surface MHC class I expression was measured by flow cytometry.
Cannabigerol was also tested for its capacity to induce MHC class I expression in a human colorectal carcinoma cell line, COLO 205. The cells were treated with either 25 μM or 50 μM cannabigerol for 24 hours. Fluorophor (Alexa Fluor 488)-conjugated W6/32 antibody (Thermo Fisher) was used in a flow cytometry assay to quantitate MHC class I expression. […] Cannabigerol is only one of many cannabinoid-like molecules with potential biopharmaceutical activity. […] COLO 205 cells were treated with up to 40 μM of the cannabinoids 1-5 presented in Tables 1 and 2 and evaluated for cell surface MHC class I expression as described above for cannabigerol.

The subject of a further data set is A9 tumors. The experiment in a line: A9 tumor mouse model, intraperitoneal treatment. Format: in vivo. From the text: FIG. 7A-7B. Number of live lymphocytes observed within the tumor of tumor bearing mice (n=8 for PBS negative control and Cannabigerol treatments, n=6 for TSA positive control). A9 tumors were present in mice for 7 days before intraperitoneal treatment, and mice were sacrificed 4-5 days after treatment. Cannabigerol upregulation of MHC-I expression attracts increased number of lymphocytes which can infiltrate the tumor.
To confirm the in vivo activity of cannabinoid compounds, a representative cannabinoid was tested in a representative animal model. A9 tumor cells were injected subcutaneously into mice at 8-10 weeks of age, and mice were treated 7 days later with either Cannabigerol, TSA, or Vehicle. 1×10^5 A9 cells were injected in a volume of 50 μL of PBS into the right flank of each mouse subcutaneously. Starting at day 7 after injection of the A9 tumor cells, intraperitoneal injections of Cannabigerol (Cayman Chemical Company) at 10 mg/kg, Trichostatin A (TSAX Sigma-Aldrich) at 0.5 mg/kg dissolved in 1% DMSO and PBS, or vehicle (0.2% DMSO, 5% Bovine Serum Albumin (BSA), in PBS) were administered daily to the animals. Cannabigerol was dissolved in 0.2% DMSO, 5% Bovine Serum Albumin, in PBS. Animals were weighed 3 times a week and during tumor measurements, and tumor measurements were begun upon appearance of the tumor, on […] of the trial. Tumor volume was determined using calipers to measure tumor dimensions. Mice were sacrificed at day 10, 11, and 12, as was dictated by subscribed humane endpoints, in which mice experienced tumor ulceration. Half of the tumors were removed from the mouse and immediately placed in digestion media (RPMI Medium 1640 (Gibco) with 10% FBS and Penicillin+Streptomycin (P+S), with the addition of 10% collagenase hyaluronidase, 15% DNAse I (Stemcell)). Tumors were chopped in 1 mL of digestion media and placed at a temperature of 35° C. for 30 minutes, before being passed through a 100 micron cell strainer (Falcon). […]

Data set [2] concerns MHC class I expression, metastatic mouse tumor cell line. The experiment in a line: Indirect screen for compounds that increase MHC class I expression in a metastatic mouse tumor cell line. Type of data set: cell-based. The source says:
An assay has been developed to indirectly screen for compounds that increase MHC class I expression in a metastatic mouse tumor cell line (U.S. patent Ser. No. 14/548,726, Jefferies et. al., published 28 May 2015). This assay identified numerous compounds that increased MHC expression. […] In addition, some other cannabinoids induce expression of MHC class I on tumor cells.

The mark [3] stands for this setting: 10 mg/kg intraperitoneal daily from day 7, versus Vehicle treated group.

Structures are written as SMILES.

Consider `CCCCCc1cc(O)c(C/C=C(\C)CCC=C(C)C)c(O)c1` [Example 1, 2-[(2E)-3,7-dimethyl-2,6-octadien-1-yl]-5-pentyl-1,3-benzenediol], for which the “upregulation of class I MHC” value with MHC class I, A9 cells (0.0275 μM) is reported as “less upregulation”. Further, in the data set on MHC class I, A9 cells (0.055 μM, relative to vehicle (DMSO), p value <0.0001, one-way ANOVA), the “class I MHC expression” value is “significant increase”. Also, the MFI in data set [1] (COLO 205, 10 μM) was determined as 125; in data set [1] (COLO 205, 20 μM), 130; in data set [1] (COLO 205, 30 μM) it was 130; in data set [1] (COLO 205, 40 μM) it was 164. The “increase in MHC class I expression” value is on record as 25% in data set [1] (COLO 205, 25 μM) and 2 fold in data set [1] (COLO 205, 50 μM). This compound returned a Cell viability in data set [1] (COLO 205, all treatment conditions (25 μM or 50 μM, 24 hours)) of over 95%. Moreover, the fold induction (commonly the ratio of treated to control signal) at 10 µM in data set [1] (Homo sapiens, COLO 205) came out at 1.03. Moreover, the fold induction at 20 µM in data set [1] (Homo sapiens, COLO 205) is 1.07. The fold induction at 30 µM in data set [1] (Homo sapiens, COLO 205) worked out at 1.07. The fold induction at 40 µM in data set [1] (Homo sapiens, COLO 205) was determined as 1.36. The “absolute numbers of lymphocytes in tumors” value in the data set on A9 tumors (10 mg/kg intraperitoneal daily from day 7, relative to vehicle treated tumors) is “Much higher”. In addition, the Mouse weight result in the data set with A9 tumors (setting [3]) is “similar”. For the same compound, in the data set on A9 tumors (setting [3]), the tumor volume result was “similar”. Also, the “activity in the MHC class I screening assay” value in data set [2] is listed as “significant activity”.
